Source: patent US11572588B2, “Methods of evaluating treatment efficacy and/or treatment duration in mycobacterial diseases” (priority 2017, dated 2023)

System: M. tuberculosis Erdman strain
Assay: highly lethal in vitro drug exposure of log-phase M. tuberculosis; killing and pre-rRNA/rRNA by RNAseq and ddPCR
Type: cell-based
Conditions: for pre-rRNA in M tuberculosis that survived exposure (FIG. 5, RNAseq reads): 48 h lethal exposure; for M. tuberculosis killed: 48 h of exposure, lethal dose, log phase culture; for 16S normalized counts, Transcripts per Million (TPM) / 23S normalized counts, Transcripts per Million (TPM) / ETS1 normalized counts, Transcripts per Million (TPM) / ITS1 normalized counts, Transcripts per Million (TPM) / ITS1/23S, Pre-RNA/23S (×10^4) / ETS1/23S, Pre-RNA/23S (×10^4): RNAseq; for ITS1/23S, Pre-RNA/23S (×10^4): control 466; for ETS1/23S, Pre-RNA/23S (×10^4): control 514; for effect on ETS1 and ITS1: relative to control
[1] = lethal in vitro exposure, Day 2
[2] = lethal in vitro exposure, Day 7
[3] = lethal in vitro exposure, Day 5

**Q.** For `COc1nc2ccc(Br)cc2cc1[C@@H](c1ccccc1)[C@@](O)(CCN(C)C)c1cccc2ccccc12` [Bedaquiline, bedaquiline], which “pre-rRNA in M tuberculosis that survived exposure (FIG. 5, RNAseq reads)” value (“pre-rRNA” for short) is on record?
**A.** The value was “negligible pre-rRNA”.

**Q.** And the M. tuberculosis killed?
**A.** The M. tuberculosis killed was about 99.9%.

**Q.** And the “16S normalized counts, Transcripts per Million (TPM)” value [1]?
**A.** The value was 343,978 TPM.

**Q.** And the “23S normalized counts, Transcripts per Million (TPM)” value [1]?
**A.** Its value is 654,924 TPM.

**Q.** What about the “ETS1 normalized counts, Transcripts per Million (TPM)” value [1] of the same compound?
**A.** The value was 548 TPM.

**Q.** And the “ITS1 normalized counts, Transcripts per Million (TPM)” value [1]?
**A.** The value was 551 TPM.

**Q.** What about the “ITS1/23S, Pre-RNA/23S (×10^4)” value [1] of the same compound?
**A.** Its value is 8.4 ×10^4.

**Q.** What about the “ETS1/23S, Pre-RNA/23S (×10^4)” value [1] of the same compound?
**A.** The value was 8.4 ×10^4.

**Q.** What about the “16S normalized counts, Transcripts per Million (TPM)” value [2] of the same compound?
**A.** Its value is 208,644 TPM.

**Q.** What about the “23S normalized counts, Transcripts per Million (TPM)” value [2] of the same compound?
**A.** The value was 788,154 TPM.

**Q.** What about the “ETS1 normalized counts, Transcripts per Million (TPM)” value [2] of the same compound?
**A.** The value was 1,778 TPM.

**Q.** And the “ITS1 normalized counts, Transcripts per Million (TPM)” value [2]?
**A.** Its value is 1,425 TPM.

**Q.** What about the “ITS1/23S, Pre-RNA/23S (×10^4)” value [2] of the same compound?
**A.** Its value is 18.1 ×10^4.

**Q.** What about the “ETS1/23S, Pre-RNA/23S (×10^4)” value [2] of the same compound?
**A.** The value was 22.6 ×10^4.

**Q.** And the “decrease of ETS1/23S relative to control” value (lethal in vitro exposure)?
**A.** Its value is over 20 fold.

**Q.** What about the “decrease of ITS1/23S relative to control” value (lethal in vitro exposure) of the same compound?
**A.** The value was over 20 fold.

**Q.** Which “pre-rRNA” value does the source give for `NNC(=O)c1ccncc1` [Isoniazid, isoniazid] here?
**A.** Its value is “abundant pre-rRNA”.

**Q.** What about the M. tuberculosis killed of the same compound?
**A.** Its M. tuberculosis killed is 99.99%.

**Q.** What about the “16S normalized counts, Transcripts per Million (TPM)” value [1] of the same compound?
**A.** The value was 423,197 TPM.

**Q.** And the “23S normalized counts, Transcripts per Million (TPM)” value [1]?
**A.** The value was 556,210 TPM.

**Q.** What about the “ETS1 normalized counts, Transcripts per Million (TPM)” value [1] of the same compound?
**A.** The value was 12,092 TPM.

**Q.** What about the “ITS1 normalized counts, Transcripts per Million (TPM)” value [1] of the same compound?
**A.** Its value is 8,502 TPM.

**Q.** And the “ITS1/23S, Pre-RNA/23S (×10^4)” value [1]?
**A.** Its value is 153 ×10^4.

**Q.** What about the “ETS1/23S, Pre-RNA/23S (×10^4)” value [1] of the same compound?
**A.** The value was 217 ×10^4.

**Q.** And the “16S normalized counts, Transcripts per Million (TPM)” value [2]?
**A.** Its value is 451,670 TPM.

**Q.** What about the “23S normalized counts, Transcripts per Million (TPM)” value [2] of the same compound?
**A.** The value was 519,579 TPM.

**Q.** And the “ETS1 normalized counts, Transcripts per Million (TPM)” value [2]?
**A.** The value was 16,987 TPM.

**Q.** And the “ITS1 normalized counts, Transcripts per Million (TPM)” value [2]?
**A.** Its value is 11,763 TPM.

**Q.** And the “ITS1/23S, Pre-RNA/23S (×10^4)” value [2]?
**A.** Its value is 226 ×10^4.

**Q.** What about the “ETS1/23S, Pre-RNA/23S (×10^4)” value [2] of the same compound?
**A.** Its value is 327 ×10^4.

**Q.** What about the “decrease of ETS1/23S” value (lethal in vitro exposure) of the same compound?
**A.** Its value is about 50%.

**Q.** What about the “decrease of ITS1/23S” value (lethal in vitro exposure) of the same compound?
**A.** Its value is about 50%.

**Q.** `CO[C@H]1/C=C/O[C@@]2(C)Oc3c(C)c(O)c4c(O)c(c(/C=N/N5CCN(C)CC5)c(O)c4c3C2=O)NC(=O)/C(C)=C\C=C\[C@H](C)[C@H](O)[C@@H](C)[C@@H](O)[C@@H](C)[C@H](OC(C)=O)[C@@H]1C` [Rifampin, rifampin] was tested. Which “pre-rRNA” value did it give?
**A.** Its value is “negligible pre-rRNA”.

**Q.** What about the M. tuberculosis killed of the same compound?
**A.** Its M. tuberculosis killed is 99.99%.

**Q.** And the “16S normalized counts, Transcripts per Million (TPM)” value [1]?
**A.** Its value is 375,111 TPM.

**Q.** And the “23S normalized counts, Transcripts per Million (TPM)” value [1]?
**A.** The value was 624,759 TPM.

**Q.** What about the “ETS1 normalized counts, Transcripts per Million (TPM)” value [1] of the same compound?
**A.** The value was 58 TPM.

**Q.** And the “ITS1 normalized counts, Transcripts per Million (TPM)” value [1]?
**A.** The value was 72 TPM.

**Q.** And the “ITS1/23S, Pre-RNA/23S (×10^4)” value [1]?
**A.** Its value is 1.15 ×10^4.

**Q.** And the “ETS1/23S, Pre-RNA/23S (×10^4)” value [1]?
**A.** Its value is 0.92 ×10^4.

**Q.** And the “16S normalized counts, Transcripts per Million (TPM)” value [3]?
**A.** The value was 306,538 TPM.

**Q.** What about the “23S normalized counts, Transcripts per Million (TPM)” value [3] of the same compound?
**A.** The value was 693,196 TPM.

**Q.** What about the “ETS1 normalized counts, Transcripts per Million (TPM)” value [3] of the same compound?
**A.** Its value is 30 TPM.

**Q.** What about the “ITS1 normalized counts, Transcripts per Million (TPM)” value [3] of the same compound?
**A.** The value was 235 TPM.

**Q.** And the “ITS1/23S, Pre-RNA/23S (×10^4)” value [3]?
**A.** The value was 3.39 ×10^4.

**Q.** And the “ETS1/23S, Pre-RNA/23S (×10^4)” value [3]?
**A.** The value was 0.44 ×10^4.

**Q.** What about the “decrease of ETS1/23S relative to control” value (lethal in vitro exposure) of the same compound?
**A.** Its value is over 100 fold.

**Q.** What about the “decrease of ITS1/23S relative to control” value (lethal in vitro exposure) of the same compound?
**A.** Its value is over 100 fold.

**Q.** And the “effect on ETS1 and ITS1” value (lethal in vitro exposure)?
**A.** Its value is “nearly complete abrogated ETS1 and ITS1”.

**Q.** How did the “pre-rRNA” value turn out when `[H]/N=C(/N)N[C@H]1[C@H](O)[C@@H](O)[C@H](O[C@@H]2O[C@@H](C)[C@](O)(C=O)[C@H]2O[C@@H]2O[C@@H](CO)[C@H](O)[C@@H](O)[C@@H]2NC)[C@@H](N/C(N)=N\[H])[C@@H]1O` [Streptomycin, streptomycin] was run?
**A.** The value was “abundant pre-rRNA”.

**Q.** And the M. tuberculosis killed?
**A.** Its M. tuberculosis killed is 99.99%.

**Q.** What about the “16S normalized counts, Transcripts per Million (TPM)” value [1] of the same compound?
**A.** Its value is 453,930 TPM.

**Q.** And the “23S normalized counts, Transcripts per Million (TPM)” value [1]?
**A.** Its value is 430,311 TPM.

**Q.** What about the “ETS1 normalized counts, Transcripts per Million (TPM)” value [1] of the same compound?
**A.** The value was 78,749 TPM.

**Q.** What about the “ITS1 normalized counts, Transcripts per Million (TPM)” value [1] of the same compound?
**A.** Its value is 37,010 TPM.

**Q.** And the “ITS1/23S, Pre-RNA/23S (×10^4)” value [1]?
**A.** The value was 860 ×10^4.

**Q.** What about the “ETS1/23S, Pre-RNA/23S (×10^4)” value [1] of the same compound?
**A.** The value was 1,830 ×10^4.

**Q.** And the “16S normalized counts, Transcripts per Million (TPM)” value [3]?
**A.** Its value is 406,987 TPM.

**Q.** And the “23S normalized counts, Transcripts per Million (TPM)” value [3]?
**A.** The value was 488,000 TPM.

**Q.** What about the “ETS1 normalized counts, Transcripts per Million (TPM)” value [3] of the same compound?
**A.** Its value is 72,994 TPM.

**Q.** What about the “ITS1 normalized counts, Transcripts per Million (TPM)” value [3] of the same compound?
**A.** Its value is 32,019 TPM.

**Q.** What about the “ITS1/23S, Pre-RNA/23S (×10^4)” value [3] of the same compound?
**A.** The value was 656 ×10^4.

**Q.** What about the “ETS1/23S, Pre-RNA/23S (×10^4)” value [3] of the same compound?
**A.** Its value is 1,496 ×10^4.

**Q.** What about the “effect on ETS1 and ITS1” value (lethal in vitro exposure) of the same compound?
**A.** Its value is “increased ETS1 and ITS1”.
